# Source: PMC7529893, “Structural basis for substrate recognition and chemical inhibition of oncogenic MAGE ubiquitin ligases” (Nature Communications, 2020)
# pIC50: −log10 of the molar value. Read-outs that look alike come from different tables or passages of the source.
# Target: T1, MAGE-A11:PCF11 interaction (GST-MAGE-A11 MHD and FAM-PCF11_4) (Homo sapiens, UniProt P43364)
# T1 construct: GST-MAGE-A11 MHD (human MAGE-A11 MHD amino acid 218-429); made in house; host or cells: E. coli BL21(DE3)
# T1 sequence (P43364 218-429): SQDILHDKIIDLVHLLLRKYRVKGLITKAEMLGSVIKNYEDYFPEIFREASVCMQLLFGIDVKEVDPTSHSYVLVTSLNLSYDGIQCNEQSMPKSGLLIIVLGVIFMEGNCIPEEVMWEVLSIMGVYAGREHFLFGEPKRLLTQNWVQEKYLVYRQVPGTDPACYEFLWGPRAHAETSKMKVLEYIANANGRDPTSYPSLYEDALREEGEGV
# Assay: TR-FRET dose response test of compounds for disruption of MAGE-A11:PCF11 binding
# Experimental: The TR-FRET assay buffer with a formula of 50 mM Tris pH 7.5, 20 mM MgCl2, 0.1 mg/ml BSA and 1 mM DTT was freshly prepared before each experiment. All TR-FRET assays were performed in black 384-well plates with 20 µl/well assay volume in the TR-FRET assay buffer at room temperature (~25 °C). All peptides or compounds were solubilized in DMSO. To test the competitive activity of peptides or compounds against the interaction between GST-MAGE-A11 MHD and FAM-PCF11_4 peptide, 10 µl/well peptide or compound at specified concentration was dispensed into a black 384-well low volume plate, followed by 5 µl/well FAM-PCF11_4 (800 nM), 5 µl/well Tb-anti-GST (20 nM), and GST-MAGE-A11 MHD (20 nM). The assay components in each well was then mixed by shaking the plate on an IKA MTS 2/4 digital microtiter plate shaker (IKA Works; Wilmington, NC, USA) for 1 min. The plate was further centrifuged in an Eppendorf 5810 centrifuge with an A-4-62 swing-bucket rotor (Eppendorf AG, Hamburg, Germany) at 201 g for 30 s. The plate was then incubated for 90 min with a lid to avoid light exposure to the assay components. After incubation, the fluorescent emission signals at 520 nm and 490 nm channels of individual wells were measured with a PHERAstar FS plate reader (BMG Labtech; Durham, NC, USA) by using a 340 nm excitation filter, 100 µs delay time, and 200 µs integration time. The TR-FRET fluorescence emission ratio (TR-FRET signal) for each well was presented as 10,000 × 520 nm/490 nm, which was used directly for curve fitting, or further converted to %Inhibition based on the respective positive and negative controls. The graphic software GraphPad Prism 4.81 (GraphPad Software; La Jolla, CA, USA) was used to generate curves and derive IC50 values of tested peptides or compounds, if applicable.
# TR-FRET screen for identifying MAGE-A11 small molecule inhibitors was performed as follows. The primary one-concentration screening and subsequent 10 or 20-concentration dose-response tests were accomplished with an automated High Throughput Screening system (HighRes Biosolutions, Beverly, MA)[30]. In the primary screening, 15 µl/well FAM-PCF11_4 (267 nM) was first dispensed with a Multidrop Combi Reagent Dispenser (Thermo Fisher Scientific, Waltham, MA) to black 384-well low-volume assay plates. The plates were spun down with a Velocity11 VSpin microplate centrifuge (Agilent Technologies, Santa Clara, CA). In total, 30 nl/well of 10 mM compound/DMSO solutions, or DMSO alone, were transferred from compound plates (the St. Jude FDA drug and bioactive library, Drug-like library and Lead-like library) or a control plate to the assay plates with a Pin Tool (V&P Scientific, San Diego, CA). The compounds were arrayed in columns 3–12 and columns 15–24 of compound plates. The controls were arrayed in columns 1, 2, 13, and 14 of a compound plate. In all, 5 µl/well Tb-anti-GST (20 nM) and GST-MAGE-A11 (20 nM) or 5 µl/well Tb-anti-GST (20 nM) alone was then dispensed to selected wells with a Multidrop Combi Reagent Dispenser. The final assay volume was 20 µl/well. The final DMSO concentration was 0.25% (v/v) (0.1% (v/v) from the FAM-PCF11_4 DMSO stock solution and 0.15% (v/v) from the compound-DMSO solution or the DMSO for the control wells). The final tested compound concentration was 15 µM. The final FAM-PCF11_4 concentration was 200 nM and the final Tb-anti-GST concentration was 5 nM. The final GST-MAGE-A11 concentration was 5 nM except for those selected positive control wells in which GST-MAGE-A11 was not presented. The plates were then shaken with a big bear shaker (Big Bear Automation, Santa Clara, California) and spun down with the Velocity11 VSpin microplate centrifuge for 20 s. The plates were then incubated at room temperature in a Liconic incubator (Liconic US, Woburn, MA) for 90 min. The TR-FRET signals for individual wells were measured with a PHERAstar FS plate reader. The %Inhibition of each tested inhibitor was calculated by using Eq. 1.
# [1] = Dose response TR-FRET screening of nine scaffold groups against MAGE-A11:PCF11, read-out: consensus IC50
# [2] = Supplementary Data 3, 59 quinoline compounds, read-out: TR-FRET IC50
SMILES,pIC50 [1],pIC50 [2]
COc1ccc(F)cc1CNCCCNc1ccnc2cc(Cc3cccc(C(F)(F)F)c3)ccc12 [SJ000311301-2],4.65,
COc1cccc(CNCCCNc2ccnc3cc(Cc4ccc(C#N)cc4)ccc23)c1O [SJ000311303-1],4.29,
N#Cc1ccc(Cc2ccc3c(NCCCNCc4cccc5c4OCO5)ccnc3c2)cc1 [SJ000311304-1],4.18,
"c1ccc(Cc2ccc3c(NCCCNCc4ccco4)ccnc3c2)cc1 [SJ000311306-2, C(CNCc1occc1)CNc2ccnc3cc(Cc4ccccc4)ccc23]",,4.49
c1ccc(Cc2ccc3c(NCCCNCc4cccc5c4OCO5)ccnc3c2)cc1 [SJ000311308-1],4.34,
COc1ccc(F)cc1CNCCCNc1ccnc2cc(Cc3ccccc3)ccc12 [SJ000311309-1],4.74,
COc1cc(Cc2ccc3c(NCCCNCc4cccc(OC)c4O)ccnc3c2)cc(OC)c1 [SJ000311311-1],4.47,
COc1cc(Cc2ccc3c(NCCCNCc4cccc5c4OCO5)ccnc3c2)cc(OC)c1 [SJ000311312-1],4.50,
COc1cc(Cc2ccc3c(NCCCNCc4cc(F)ccc4OC)ccnc3c2)cc(OC)c1 [SJ000311313-1],4.47,
"Clc1cccc(Cl)c1Cc1ccc2c(NCCCNCc3ccco3)ccnc2c1 [SJ000311314-1, Clc1cccc(Cl)c1Cc2ccc3c(NCCCNCc4occc4)ccnc3c2]",,4.42
COc1cccc(CNCCCNc2ccnc3cc(Cc4c(Cl)cccc4Cl)ccc23)c1O [SJ000311315-1],4.86,
Clc1cccc(Cl)c1Cc1ccc2c(NCCCNCc3cccc4c3OCO4)ccnc2c1 [SJ000311316-1],4.96,
COc1ccc(F)cc1CNCCCNc1ccnc2cc(Cc3c(Cl)cccc3Cl)ccc12 [SJ000311317-1],4.91,
"Cc1cc(C)cc(Cc2ccc3c(NCCCNCc4ccco4)ccnc3c2)c1 [SJ000311318-2, Cc1cc(C)cc(Cc2ccc3c(NCCCNCc4occc4)ccnc3c2)c1]",,< 4.15
COc1cccc(CNCCCNc2ccnc3cc(Cc4cc(C)cc(C)c4)ccc23)c1O [SJ000311319-1],4.63,
Cc1cc(C)cc(Cc2ccc3c(NCCCNCc4cccc5c4OCO5)ccnc3c2)c1 [SJ000311320-1],4.79,
COc1ccc(F)cc1CNCCCNc1ccnc2cc(Cc3cc(C)cc(C)c3)ccc12 [SJ000311321-1],5.04,
COc1cccc(CNCCCNc2ccnc3cc(Cc4ccc(F)cc4Cl)ccc23)c1O [SJ000311323-1],4.75,
Fc1ccc(Cc2ccc3c(NCCCNCc4cccc5c4OCO5)ccnc3c2)c(Cl)c1 [SJ000311324-1],4.69,
COc1ccc(F)cc1CNCCCNc1ccnc2cc(Cc3ccc(F)cc3Cl)ccc12 [SJ000311325-1],4.75,
O=C1C(Cl)=C(NCCN2CCOCC2)C(=O)c2ncccc21 [SJ000312204-6],5.65,
Cc1ccc(S(=O)(=O)c2nc(-c3ccccc3C)oc2N2CC(C)OC(C)C2)cc1 (centres unmarked) [SJ000329041-1],4.93,

SMILES,pIC50 [1],pIC50 [2]
Cc1ccc(S(=O)(=O)c2nc(-c3ccccc3Cl)oc2N2CC(C)OC(C)C2)cc1 (centres unmarked) [SJ000329066-1],4.89,
CC1CN(c2oc(-c3ccccc3F)nc2S(=O)(=O)c2ccc(F)cc2)CC(C)O1 (centres unmarked) [SJ000329067-1],4.56,
"Oc1c(F)cc(F)cc1CN(CCCCNc1ccnc2cc(Cl)ccc12)Cc1ccccc1 [SJ000357506-2, Oc1c(F)cc(F)cc1CN(CCCCNc2ccnc3cc(Cl)ccc23)Cc4ccccc4]",,< 4.15
"CC(C)(C)CCN(CCCCNc1ccnc2cc(Cl)ccc12)Cc1ccccc1 [SJ000357537-2, CC(C)(C)CCN(CCCCNc1ccnc2cc(Cl)ccc12)Cc3ccccc3]",,< 4.15
"FC(F)(F)c1ccc2c(NCCCNCc3ccc[nH]3)ccnc2c1 [SJ000361105-1, FC(F)(F)c1ccc2c(NCCCNCc3ccc[nH]3)ccnc2c1]",,4.48
CCCCCCNCCCNc1ccnc2cc(C(F)(F)F)ccc12 [SJ000361124-1],,4.24
"Cc1cc(C)c(CN(CCCNc2ccnc3cc(Cl)ccc23)Cc2ccccc2)c(C)c1 [SJ000361169-2, Cc1cc(C)c(CN(CCCNc2ccnc3cc(Cl)ccc23)Cc4ccccc4)c(C)c1]",,< 4.15
"Clc1ccc2c(NCCCCN(Cc3ccccc3)CC3CCCCC3)ccnc2c1 [SJ000361194-2, Clc1ccc2c(NCCCCN(CC3CCCCC3)Cc4ccccc4)ccnc2c1]",,< 4.15
"Clc1ccc(CN(CCCCNc2ccnc3cc(Cl)ccc23)Cc2ccccc2)c(Cl)c1 [SJ000361207-2, Clc1ccc(CN(CCCCNc2ccnc3cc(Cl)ccc23)Cc4ccccc4)c(Cl)c1]",,< 4.15
"CCC(C)CN(CCCCNc1ccnc2cc(Cl)ccc12)Cc1ccccc1 (centres unmarked) [SJ000361208-2, CCC(C)CN(CCCCNc1ccnc2cc(Cl)ccc12)Cc3ccccc3]",,< 4.15
"Cc1ccc(C)c(CN(CCCCNc2ccnc3cc(Cl)ccc23)Cc2ccccc2)c1 [SJ000361209-2, Cc1ccc(C)c(CN(CCCCNc2ccnc3cc(Cl)ccc23)Cc4ccccc4)c1]",,< 4.15
"CCCN(CCCNc1ccnc2cc(C(F)(F)F)ccc12)Cc1ccc[nH]1 [SJ000361255-1, CCCN(CCCNc1ccnc2cc(ccc12)C(F)(F)F)Cc3ccc[nH]3]",,< 4.15
"CCCN(CCCNc1ccnc2cc(C(F)(F)F)ccc12)CC1CC1 [SJ000361266-1, CCCN(CCCNc1ccnc2cc(ccc12)C(F)(F)F)CC3CC3]",,< 4.15
"CCCN(CCCNc1ccnc2cc(C(F)(F)F)ccc12)CC1CCCCC1 [SJ000361268-1, CCCN(CCCNc1ccnc2cc(ccc12)C(F)(F)F)CC3CCCCC3]",,< 4.15
"CCCN(CCCNc1ccnc2cc(C(F)(F)F)ccc12)CC(CC)CC [SJ000361269-1, CCCN(CCCNc1ccnc2cc(ccc12)C(F)(F)F)CC(CC)CC]",,< 4.15
"CCCCCN(CCC)CCCNc1ccnc2cc(C(F)(F)F)ccc12 [SJ000361271-1, CCCCCN(CCC)CCCNc1ccnc2cc(ccc12)C(F)(F)F]",,< 4.15
O=C1OCC(c2ccc(OC(F)F)cc2)=C1c1ccc([N+](=O)[O-])cc1 [SJ000368145-1],4.39,
CCCCCn1c(-c2ccc(F)c(Br)c2)nc2c1c(=O)[nH]c(=O)n2CCCC [SJ000378900-1],5.58,
C=C(C)CSc1nc2cc(-c3ccccc3)sc2c(=O)n1CCN1CCOCC1 [SJ000456069-1],6.07,
"Clc1ccc2c(NCCCN(Cc3ccccc3)Cc3ccc4[nH]ccc4c3)ccnc2c1 [SJ000520430-1, Clc1ccc2c(NCCCN(Cc3ccccc3)Cc4ccc5[nH]ccc5c4)ccnc2c1]",,4.38
"Clc1ccc2c(NCCCN(Cc3ccccc3)Cc3c[nH]c4ccccc34)ccnc2c1 [SJ000520433-1, Clc1ccc2c(NCCCN(Cc3ccccc3)Cc4c[nH]c5ccccc45)ccnc2c1]",,< 4.15
"Clc1ccc2c(NCCCCN(Cc3ccccc3)Cc3ccc4[nH]ccc4c3)ccnc2c1 [SJ000520434-1, Clc1ccc2c(NCCCCN(Cc3ccccc3)Cc4ccc5[nH]ccc5c4)ccnc2c1]",,4.63
